What all share (type): biochemical
For test [1], the target named is T1, FGFR1 active kinase (Homo sapiens, UniProt P11362). The experiment in a line: FGFR Kinase assay - Caliper. On FGFR Kinase assay - Caliper, IC50: 408 µM ATP. On the procedure: FGFR Kinase Assay—Caliper
To determine inhibition of FGFR activity, kinase assays were conducted using Caliper technology.
Kinase activity assays were performed in Greiner 384-well low volume plates, with a total reaction volume of 12 ul per well. Final concentration of FGFR1 active kinase in each reaction well was 7.2 nM. The substrate for each assay was a custom peptide with fluorescent tag (13 amino acids in length, […] with the fluorescene tag on the first K).
Compounds were serially diluted in 5% (v/v) DMSO, before being added to assay plates. The Enzyme (at 7.2 nM [final]) and Substrate (at 3.6 uM [final]) were added separately to the compound plates, in reaction buffer [comprising: 50 mM MOPS (Sigma, Catalogue No. M1254)—pH 6.5, 0.004% Triton (Sigma, Catalogue No. X-100), 2.4 mM DTT, 12 mM MgCl2, 408 uM ATP] resulting in a final DMSO concentration in the reaction mix of 0.8%.
Assay plates were incubated at room temperature for 1.5 h, before the reaction was stopped with the addition of buffer [comprising: 100 mM HEPES—pH7.5, 0.033% Brij-35 (Sigma Catalogue No. B4184), 0.22% Caliper Coating Reagent #3 (Caliper Life Sciences Catalogue No. 760050), 88 mM EDTA, 5% DMSO]. Stopped assay plates were then read using the Caliper LabChip® LC3000 (which uses microfludics to measure a shift in mobility between fluorescent labelled peptide and the FGFR1 kinase—phosphorylated form of this peptide).
In the assay, compounds were tested at a range of concentrations.
Percentage inhibition at 1 uM, as expressed herein, is a calculated value based on the curve fit that was generated experimentally. From the fitted curve plot, the effect of compound at a concentration of 1 uM was calculated as a percentage inhibition. The IC50 is the concentration of compound, which inhibits FGFR1 kinase activity by 50% in the context of this assay.

In test [2] the target is T2, His6-tagged FGFR kinase domain (Homo sapiens, UniProt P11362, C488A/C584S).
T2 construct: FGFR kinase domain (amino acids 458-765, C488A, C584S) N-terminally fused to a His6-tag and TEV cleavage site; His6-tag plus linker and TEV cleavage site (printed as X1); made in house
The experiment in a line: FGFR Kinase assay - Elisa. On the procedure: To determine inhibition of FGFR activity, kinase assays were conducted using ELISA (Enzyme-Linked Immunosorbent Assay) technology.
Kinase activity assays were performed in 384-well polypropylene plates (Matrix, Catalogue No. 4311. Matrix are part of Thermo Fisher Scientific, 22 Friars Drive, Hudson, N.H. 03051, USA) with a total volume of 40 μl in each well. Each well was coated with 2 μg of polyEAY substrate (Sigma, Catalogue No. P3899) at 4° C. overnight. The plates were then washed once with 100 μl PBS and once with 100 μl 50 mM HEPES (pH 7.4) prior to the addition of the kinase assay reagents. Reactions contained His6-tagged FGFR kinase domain (FGFR kinase domain (amino acids 458-765, C488A, C584S) N-terminally fused to a His6-tag and TEV cleavage site encoded by the following sequence; [[…]]. The final alanine denotes the start of the FGFR protein sequence. The resultant protein was expressed and purified based on Mohammadi et al, Cell Vol 86, 577-587 (1996). Each kinase reaction contained 0.1 ng His6-tagged FGFR kinase domain, 50 mM HEPES (pH 7.4), 0.1 mM Na3VO4, 0.1 mM DTT, 0.05% (v/v) Triton X100, 20 mM MgCl2, 160 μM ATP. Various concentrations of test compounds were each added in 5% (v/v) DMSO to yield a final assay DMSO concentration of 1.25% (v/v). The kinase reactions were incubated at room temperature for 45 minutes and stopped by washing the plate three times with 100 μl PBS plus 0.05% Tween. 40 μl of a one in 10000 dilution of 4G10-HRP antibody (Upstate Biotechnology, UBI 16-105. Upstate are part of Millipore Corporation, 290 Concord Road, Billerca Mass. 01821 USA) made up in 0.5% (w/v) BSA/PBS was then added to each well and the plates incubated at room temperature for one hour. Following this, the plates were then washed repeatedly with 100 μl PBS plus 0.05% Tween to remove all traces of the antibody solution. 40 μl of 50 μg/ml 3,3′,5,5′-Tetramethylbenzidine (Sigma, Catalogue No. T2885), 0.05M phosphate-citrate buffer, containing 0.03% sodium perborate was added to each well and the plates incubated at room temperature for twelve minutes. The colour reaction was stopped by the addition of 20 μl 2M H2SO4 and the plates read at 450 nm on a Spectrafluor Plus (Tecan Trading AG, Switzerland). In the assay, compounds were tested at a range of concentrations.
Percentage inhibition at 1 uM, as expressed herein, is a calculated value based on the curve fit that was generated experimentally. From the fitted curve plot, the effect of compound at a concentration of 1 uM was calculated as a percentage inhibition. The IC50 value is the concentration of test compound that inhibits 50% of FGFR kinase activity.

In test [3] the target is T1, FGFR1 active kinase. Briefly: FGFR Kinase assay - Caliper Echo Dosing. The note with it: FGFR1 7.2 nM, 408 uM ATP, acoustic dosing; geometric mean of n.
Setting [4] is: FGFR1 […], 408 uM ATP, mean of n as printed, read-out: FGFR Kinase assay - Caliper, IC50.
[5] abbreviates: FGFR inhibition test, Caliper, read-out: Activity class (FGFR Kinase assay - Caliper).
Where [6] appears, read: FGFR inhibition test, Elisa, read-out: Activity class (FGFR Kinase assay - Elisa).

Where two headings read alike, the source gives them in different places.

Drawing on patent US10301267B2, “Compounds” (AstraZeneca AB, priority 2006, dated 2019), this text covers IC50 for 19 molecules.

T2 sequence (P11362 458-765 C488A/C584S): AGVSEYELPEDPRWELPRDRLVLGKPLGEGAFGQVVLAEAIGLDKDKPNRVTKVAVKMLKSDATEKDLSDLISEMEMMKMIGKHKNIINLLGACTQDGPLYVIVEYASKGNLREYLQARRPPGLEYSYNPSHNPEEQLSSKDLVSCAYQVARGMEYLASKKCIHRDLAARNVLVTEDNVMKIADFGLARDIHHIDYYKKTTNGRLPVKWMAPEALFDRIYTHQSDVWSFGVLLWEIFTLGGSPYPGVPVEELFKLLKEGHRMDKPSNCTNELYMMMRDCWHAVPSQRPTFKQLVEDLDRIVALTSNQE
T1 sequence (P11362 22-822): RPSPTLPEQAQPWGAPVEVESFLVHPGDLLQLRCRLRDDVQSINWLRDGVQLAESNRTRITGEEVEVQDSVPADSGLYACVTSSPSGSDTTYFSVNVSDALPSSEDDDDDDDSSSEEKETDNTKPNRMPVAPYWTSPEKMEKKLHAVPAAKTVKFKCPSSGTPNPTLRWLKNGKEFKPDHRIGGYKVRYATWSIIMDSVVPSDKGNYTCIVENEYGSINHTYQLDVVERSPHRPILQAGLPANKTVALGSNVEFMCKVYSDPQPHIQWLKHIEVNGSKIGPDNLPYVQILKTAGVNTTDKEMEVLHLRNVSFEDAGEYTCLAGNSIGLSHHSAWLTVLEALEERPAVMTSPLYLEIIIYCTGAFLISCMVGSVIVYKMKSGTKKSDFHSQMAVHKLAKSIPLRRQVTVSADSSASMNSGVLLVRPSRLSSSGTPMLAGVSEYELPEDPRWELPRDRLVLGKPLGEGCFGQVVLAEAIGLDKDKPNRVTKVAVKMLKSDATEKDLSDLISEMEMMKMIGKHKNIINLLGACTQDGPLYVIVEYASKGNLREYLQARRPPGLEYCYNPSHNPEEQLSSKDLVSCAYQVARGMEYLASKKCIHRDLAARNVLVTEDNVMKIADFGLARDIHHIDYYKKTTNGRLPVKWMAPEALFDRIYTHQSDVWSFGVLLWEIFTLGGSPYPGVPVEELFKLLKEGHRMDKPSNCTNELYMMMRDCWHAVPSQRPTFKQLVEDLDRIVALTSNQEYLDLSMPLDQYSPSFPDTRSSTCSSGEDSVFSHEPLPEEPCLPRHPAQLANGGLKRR

In the case of `COc1cccc(CCc2cc(NC(=O)c3ccc(C)nc3)[nH]n2)c1` [Example 13, N-[5-[2-(3-Methoxyphenyl)ethyl]-2H-pyrazol-3-yl]-6-methyl-pyridine-3-carboxamide], the values for the IC50 in test [1] (setting [4]), in test [1] (setting [5]) and in test [2] (setting [6]) were 950 nM, 300 to 1000 nM and 300 to 1000 nM, respectively.

Take `COc1cccc(CCc2cc(NC(=O)c3cnc(C)cn3)[nH]n2)c1` [Example 16, N-[5-[2-(3-Methoxyphenyl)ethyl]-2H-pyrazol-3-yl]-5-methyl-pyrazine-2-carboxamide]: the values for the IC50 in test [1] (setting [4]), in test [1] (setting [5]) and in test [2] (setting [6]) were 750 nM, 300 to 1000 nM and 300 to 1000 nM, respectively.

Turning to `COc1cc(COc2cc(NC(=O)c3cnc(N4CCN(C)CC4)cn3)[nH]n2)cc(OC)c1` [Example 20, N-[5-[(3,5-Dimethoxyphenyl)methoxy]-2H-pyrazol-3-yl]-5-(4-methylpiperazin-1-yl)pyrazine-2-carboxamide], the IC50 in test [1] (setting [4]) is 46 nM; in test [1] (setting [5]), below 300 nM; in test [2] (setting [6]) it was below 300 nM.

In the case of `COc1ccc(C(=O)Nc2cc(CCc3cc(OC)cc(OC)c3)n[nH]2)cc1` [Example 3, N-[5-[2-(3,5-dimethoxyphenyl)ethyl]-2H-pyrazol-3-yl]-4-methoxy-benzamide], the IC50 in test [1] (setting [4]) is 132 nM; in test [1] (setting [5]), below 300 nM; in test [2] (setting [6]), below 300 nM.

With `COc1cccc(CCc2cc(NC(=O)c3ccc(S(C)(=O)=O)cc3)[nH]n2)c1` [Example 15, N-[5-[2-(3-Methoxyphenyl)ethyl]-2H-pyrazol-3-yl]-4-methylsulfonyl-benzamide], the IC50 in test [1] (setting [4]) is 110 nM; in test [1] (setting [5]), below 300 nM; in test [2] (setting [6]), below 300 nM.

In the case of `COc1cc(CCc2cc(NC(=O)c3ccc(N4CCOCC4)cc3)[nH]n2)cc(OC)c1` [Example 4, N-[5-[2-(3,5-dimethoxyphenyl)ethyl]-2H-pyrazol-3-yl]-4-morpholin-4-yl-benzamide], the IC50 was 68 nM in test [1] (setting [4]), below 300 nM in test [1] (setting [5]) and below 300 nM in test [2] (setting [6]).

Consider `COc1cc(COc2cc(NC(=O)c3ccc(N4CCN(C)CC4)cc3)[nH]n2)cc(OC)c1` [Example 12, N-[5-[(3,5-dimethoxyphenyl)methoxy]-2H-pyrazol-3-yl]-4-(4-methylpiperazin-1-yl)benzamide], for which the IC50 was below 300 nM in test [2] (setting [6]) and 60 nM in test [2] (polyEAY substrate, 160 μM ATP, read-out: FGFR Kinase assay - Elisa, IC50).

For `COc1cc(CCc2cc(NC(=O)c3ccc(N4CCN(C5CC5)CC4)cc3)n[nH]2)cc(OC)c1` [Example 88, 4-(4-Cyclopropylpiperazin-1-yl)-N-[5-[2-(3,5-dimethoxyphenyl)ethyl]-1H-pyrazol-3-yl]benzamide], the IC50 was 156 nM in test [1] (setting [4]) and 0.77 nM in test [3].

For `COc1cccc(CCc2cc(NC(=O)c3ccc(NC(C)=O)cc3)[nH]n2)c1` [Example 19, 4-Acetamido-N-[5-[2-(3-methoxyphenyl)ethyl]-2H-pyrazol-3-yl]benzamide], the IC50 in test [1] (setting [4]) is 400 nM; in test [1] (setting [5]), 300 to 1000 nM; in test [2] (setting [6]) it was below 300 nM.

As for `COc1cc(CCc2cc(NC(=O)c3cnc(N4CCN(C)CC4)nc3)[nH]n2)cc(OC)c1` [Example 85, N-[5-[2-(3,5-Dimethoxyphenyl)ethyl]-2H-pyrazol-3-yl]-2-(4-methylpiperazin-1-yl)pyrimidine-5-carboxamide], the IC50 in test [1] (setting [4]) was 118 nM; in test [3] it was 14.9 nM.

As for `COCCOc1cccc(CCc2cc(NC(=O)c3ccc(N4CCN(C)CC4)cc3)[nH]n2)c1` [Example 6, N-[5-[2-[3-(2-methoxyethoxy)phenyl]ethyl]-2H-pyrazol-3-yl]-4-(4-methylpiperazin-1-yl)benzamide], the IC50 in test [1] (setting [4]) was 58 nM; in test [1] (setting [5]) it was below 300 nM; in test [2] (setting [6]) it was below 300 nM.

As for `COc1cc(CCc2cc(NC(=O)c3ccc(CN4CCC(F)CC4)cc3)[nH]n2)cc(OC)c1` [Example 5, N-[5-[2-(3,5-dimethoxyphenyl)ethyl]-2H-pyrazol-3-yl]-4-[(4-fluoropiperidin-1-yl)methyl]benzamide], the IC50 was 63 nM in test [1] (setting [4]), below 300 nM in test [1] (setting [5]) and below 300 nM in test [2] (setting [6]).

Molecule `COc1cc(COc2cc(NC(=O)c3ccc(N4C[C@@H](C)N[C@@H](C)C4)cc3)[nH]n2)cc(OC)c1` [Example 100, N-[5-[(3,5-dimethoxyphenyl)methoxy]-2H-pyrazol-3-yl]-4-[(3R,5S)-3,5-dimethylpiperazin-1-yl]benzamide] showed an IC50 in test [3] of 1.4 nM.

For `COc1cc(CCc2cc(NC(=O)c3cnc(N4CCC(N(C)C)C4)cn3)[nH]n2)cc(OC)c1` (stereo not shown) [Example 157, N-[5-[2-(3,5-dimethoxyphenyl)ethyl]-2H-pyrazol-3-yl]-5-(3-dimethylaminopyrrolidin-1-yl)pyrazine-2-carboxamide], the IC50 in test [3] worked out at 2.4 nM.

The molecule `COc1cc(COc2cc(NC(=O)c3ccc(N4CC5CCCNC5C4)cc3)[nH]n2)cc(OC)c1` (stereo not shown) [Example 151, 4-(1,2,3,4,4a,5,7,7a-octahydropyrrolo[3,4-b]pyridin-6-yl)-N-[5-[(3,5-dimethoxyphenyl)methoxy]-2H-pyrazol-3-yl]benzamide] displayed an IC50 in test [3] of 1.3 nM.

In test [3], `COc1cc(COc2cc(NC(=O)c3cnc(N4CCN5CCCCC5C4)cn3)[nH]n2)cc(OC)c1` (stereo not shown) [Example 115, 5-(1,3,4,6,7,8,9,9a-Octahydropyrido[2,1-c]pyrazin-2-yl)-N-[5-[(3,5-dimethoxyphenyl)methoxy]-2H-pyrazol-3-yl]pyrazine-2-carboxamide] registered an IC50 of 2.3 nM.

Take `COc1cc(COc2cc(NC(=O)c3cnc(Cl)cn3)[nH]n2)cc(OC)c1` [5-Chloro-N-[5-[(3,5-dimethoxyphenyl)methoxy]-2H-pyrazol-3-yl]pyrazine-2-carboxamide]: the IC50 in test [3] was found to be 60 nM.

`COc1cc(CCc2cc(NC(=O)c3cnc(N4CCN(C)C(C)C4)nc3)[nH]n2)cc(OC)c1` (stereo not shown) [Example 135, N-[5-[2-(3,5-dimethoxyphenyl)ethyl]-2H-pyrazol-3-yl]-2-(3,4-dimethylpiperazin-1-yl)pyrimidine-5-carboxamide] returned an IC50 in test [3] of 2.6 nM.

Regarding `COc1cc(CCc2cc(NC(=O)c3ccc(N4CC[N+](C)([O-])CC4)cc3)[nH]n2)cc(OC)c1` [Example 117, N-[5-[2-(3,5-Dimethoxyphenyl)ethyl]-2H-pyrazol-3-yl]-4-(4-methyl-4-oxidopiperazin-4-ium-1-yl)benzamide], the IC50 in test [3] turned out to be 1.3 nM.
